Results published in PubChem BioAssay (NCI).
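Exposure lasted 48 hours, with cells grown in 96-well plates and compounds tested at five concentrations. GI50 is the concentration that inhibits growth by half. TGI marks complete inhibition of growth.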

Assays:
Assay in all cases: growth of human tumour cells (NCI), 48 h
[1] = tested on: MCF7 breast
[2] = tested on: NCI-H226 lung
[3] = tested on: CCRF-CEM leukemia
[4] = tested on: NCI-H460 lung
[5] = tested on: SK-MEL-5 melanoma
[6] = tested on: KM12 colon
[7] = tested on: MOLT-4 leukemia
[8] = tested on: HCC-2998 colon
[9] = tested on: SF-295 CNS
[10] = tested on: CAKI-1 renal
[11] = tested on: PC-3 prostate
[12] = tested on: MDA-MB-231 breast
[13] = tested on: EKVX NSCLC
[14] = tested on: NCI-H23 lung
[15] = tested on: DU-145 prostate
[16] = tested on: A498 renal
[17] = tested on: SR leukemia
[18] = tested on: ACHN renal
[19] = tested on: LOX IMVI melanoma
[20] = tested on: NCI-H522 lung
[21] = tested on: OVCAR-8 ovarian
[22] = tested on: SF-539 CNS
[23] = tested on: SNB-75 CNS
[24] = tested on: OVCAR-3 ovarian
[25] = tested on: TK-10 renal
[26] = tested on: COLO 205 colon
[27] = tested on: HOP-92 NSCLC
[28] = tested on: BT-549 breast
[29] = tested on: A549 NSCLC
[30] = tested on: HL-60(TB) leukemia
[31] = tested on: K-562 leukemia
[32] = tested on: UACC-62 melanoma
[33] = tested on: SN12C renal
[34] = tested on: 786-0 renal
[35] = tested on: OVCAR-5 ovarian
[36] = tested on: U251 CNS
[37] = tested on: HOP-62 NSCLC
[38] = tested on: MDA-MB-435
[39] = tested on: MALME-3M melanoma
[40] = tested on: SF-268 CNS
[41] = tested on: SW-620 colon
[42] = tested on: HS 578T breast
[43] = tested on: NCI/ADR-RES ovarian
[44] = tested on: HT29 colon
[45] = tested on: RXF 393 renal
[46] = tested on: HCT-15 colon
[47] = tested on: SNB-19 CNS
[48] = tested on: MDA-MB-468 breast
[49] = tested on: OVCAR-4 ovarian
[50] = tested on: SK-MEL-2 melanoma
[51] = tested on: SK-OV-3 ovarian
[52] = tested on: M14 melanoma
[53] = tested on: UACC-257 melanoma
[54] = tested on: RPMI-8226 leukemia
[55] = tested on: HCT-116 colon
[56] = tested on: UO-31 renal
[57] = tested on: T-47D breast
[58] = tested on: IGROV1 ovarian
[59] = tested on: SK-MEL-28 melanoma

How did the GI50 [1] turn out when `O=C(COc1ccc(NC(=O)Nc2ccc(Cl)c(Cl)c2)cc1)N=Nc1c(O)[nH]c2ccc(Br)cc12` was run?
The GI50 was 2010 nM.

And the TGI [1]?
Its TGI is 4710 nM.

And the GI50 [2]?
The GI50 was 1980 nM.

What about the TGI [2] of the same compound?
The TGI was 3860 nM.

And the GI50 [3]?
Its GI50 is 812 nM.

And the TGI [3]?
The TGI was 6130 nM.

And the GI50 [4]?
The GI50 was 1600 nM.

And the TGI [4]?
Its TGI is 3540 nM.

And the GI50 [5]?
Its GI50 is 1700 nM.

And the TGI [5]?
The TGI was 3090 nM.

What about the GI50 [6] of the same compound?
The GI50 was 1950 nM.

What about the TGI [6] of the same compound?
Its TGI is 4120 nM.

What about the GI50 [7] of the same compound?
Its GI50 is 629 nM.

What about the TGI [7] of the same compound?
The TGI was 2690 nM.

What about the GI50 [8] of the same compound?
The GI50 was 1820 nM.

And the TGI [8]?
The TGI was 3890 nM.

What about the GI50 [9] of the same compound?
Its GI50 is 1630 nM.

And the TGI [9]?
The TGI was 3200 nM.

What about the GI50 [10] of the same compound?
Its GI50 is 2050 nM.

What about the TGI [10] of the same compound?
Its TGI is 4300 nM.

And the GI50 [11]?
Its GI50 is 1150 nM.

And the TGI [11]?
Its TGI is 3440 nM.

What about the GI50 [12] of the same compound?
The GI50 was 1810 nM.

And the TGI [12]?
Its TGI is 3350 nM.

And the GI50 [13]?
Its GI50 is 2370 nM.

And the TGI [13]?
Its TGI is 7060 nM.

What about the GI50 [14] of the same compound?
Its GI50 is 1990 nM.

And the TGI [14]?
Its TGI is 3990 nM.

And the GI50 [15]?
Its GI50 is 3070 nM.

And the TGI [15]?
Its TGI is 9520 nM.

What about the GI50 [16] of the same compound?
The GI50 was 1560 nM.

And the TGI [16]?
Its TGI is 3790 nM.

And the GI50 [17]?
The GI50 was 2550 nM.

And the TGI [17]?
The TGI was 7980 nM.

What about the GI50 [18] of the same compound?
The GI50 was 2940 nM.

And the TGI [18]?
Its TGI is 9120 nM.

And the GI50 [19]?
Its GI50 is 1090 nM.

And the TGI [19]?
The TGI was 2300 nM.

And the GI50 [20]?
The GI50 was 1810 nM.

And the TGI [20]?
Its TGI is 3620 nM.

And the GI50 [21]?
Its GI50 is 2340 nM.

What about the TGI [21] of the same compound?
The TGI was 5420 nM.

What about the GI50 [22] of the same compound?
The GI50 was 1660 nM.

And the TGI [22]?
Its TGI is 3120 nM.

And the GI50 [23]?
The GI50 was 1330 nM.

And the TGI [23]?
Its TGI is 2840 nM.

And the GI50 [24]?
Its GI50 is 1080 nM.

What about the TGI [24] of the same compound?
Its TGI is 3130 nM.

What about the GI50 [25] of the same compound?
Its GI50 is 2460 nM.

And the TGI [25]?
Its TGI is 7790 nM.

What about the GI50 [26] of the same compound?
The GI50 was 1830 nM.

What about the TGI [26] of the same compound?
Its TGI is 3310 nM.

What about the GI50 [27] of the same compound?
Its GI50 is 1930 nM.

And the TGI [27]?
Its TGI is 4450 nM.

And the GI50 [28]?
The GI50 was 28.8 nM.

What about the TGI [28] of the same compound?
Its TGI is 2230 nM.

What about the GI50 [29] of the same compound?
The GI50 was 2060 nM.

And the TGI [29]?
Its TGI is 5000 nM.

And the GI50 [30]?
The GI50 was 2020 nM.

What about the TGI [30] of the same compound?
Its TGI is 4660 nM.

And the GI50 [31]?
Its GI50 is 1260 nM.

And the TGI [31]?
Its TGI is 6470 nM.

And the GI50 [32]?
The GI50 was 1850 nM.

What about the TGI [32] of the same compound?
Its TGI is 3770 nM.

What about the GI50 [33] of the same compound?
Its GI50 is 1820 nM.

What about the TGI [33] of the same compound?
Its TGI is 3450 nM.

What about the TGI [34] of the same compound?
The TGI was 920 nM.

What about the GI50 [35] of the same compound?
Its GI50 is 1820 nM.

What about the TGI [35] of the same compound?
The TGI was 3890 nM.

What about the GI50 [36] of the same compound?
The GI50 was 1710 nM.

And the TGI [36]?
Its TGI is 3390 nM.

What about the GI50 [37] of the same compound?
Its GI50 is 2030 nM.

And the TGI [37]?
Its TGI is 3950 nM.

What about the GI50 [38] of the same compound?
The GI50 was 1550 nM.

What about the TGI [38] of the same compound?
Its TGI is 3250 nM.

And the GI50 [39]?
Its GI50 is 1640 nM.

What about the TGI [39] of the same compound?
Its TGI is 3030 nM.

What about the GI50 [40] of the same compound?
Its GI50 is 1630 nM.

What about the TGI [40] of the same compound?
The TGI was 5150 nM.

What about the GI50 [41] of the same compound?
Its GI50 is 1460 nM.

And the TGI [41]?
Its TGI is 3060 nM.

What about the GI50 [42] of the same compound?
Its GI50 is 2250 nM.

What about the TGI [42] of the same compound?
The TGI was 6710 nM.

What about the GI50 [43] of the same compound?
The GI50 was over 100000 nM.

And the TGI [43]?
The TGI was over 100000 nM.

And the GI50 [44]?
The GI50 was 1860 nM.

And the TGI [44]?
The TGI was 3780 nM.

And the GI50 [45]?
The GI50 was 1520 nM.

And the TGI [45]?
The TGI was 3040 nM.

And the GI50 [46]?
The GI50 was 6130 nM.

What about the TGI [46] of the same compound?
The TGI was 45500 nM.

And the GI50 [47]?
The GI50 was 2680 nM.

And the TGI [47]?
Its TGI is 8420 nM.

What about the GI50 [48] of the same compound?
Its GI50 is 1750 nM.

What about the TGI [48] of the same compound?
The TGI was 3460 nM.

And the GI50 [49]?
The GI50 was 1900 nM.

And the TGI [49]?
The TGI was 4100 nM.

What about the GI50 [50] of the same compound?
Its GI50 is 1970 nM.

What about the TGI [50] of the same compound?
Its TGI is 4270 nM.

And the GI50 [51]?
Its GI50 is 2080 nM.

What about the TGI [51] of the same compound?
The TGI was 4290 nM.

What about the GI50 [52] of the same compound?
The GI50 was 231 nM.

What about the TGI [52] of the same compound?
The TGI was 634 nM.

What about the GI50 [53] of the same compound?
Its GI50 is 1790 nM.

What about the TGI [53] of the same compound?
Its TGI is 3560 nM.

And the GI50 [54]?
The GI50 was 2190 nM.

What about the TGI [54] of the same compound?
Its TGI is 6370 nM.

And the GI50 [55]?
The GI50 was 166 nM.

What about the TGI [55] of the same compound?
Its TGI is 369 nM.

What about the GI50 [56] of the same compound?
The GI50 was 11500 nM.

And the TGI [56]?
Its TGI is 45900 nM.

What about the GI50 [57] of the same compound?
Its GI50 is 1960 nM.

And the TGI [57]?
The TGI was 4570 nM.

What about the GI50 [58] of the same compound?
Its GI50 is 1880 nM.

And the TGI [58]?
The TGI was 3920 nM.

What about the GI50 [59] of the same compound?
Its GI50 is 1830 nM.

And the TGI [59]?
Its TGI is 3430 nM.
